Assays:
Assay type in all cases: functional
LOX IMVI = assay: Cytotoxicity against human LOXIMVI cells assessed as cell growth at 1 uM after 48 hrs by SRB assay relative to control; conditions: read-out: Activity
HOP-92 = assay: Cytotoxicity against human HOP92 cells assessed as cell growth at 0.1 uM after 48 hrs by SRB assay relative to control; conditions: HOP-92, 48 h, read-out: Activity
UO-31 = assay: Cytotoxicity against human UO31 cells assessed as cell growth at 1 uM after 48 hrs by SRB assay relative to control; conditions: UO-31, 48 h, read-out: Activity
PC-3 = assay: Cytotoxicity against human PC3 cells assessed as cell growth at 1 uM after 48 hrs by SRB assay relative to control; conditions: PC-3, 48 h, read-out: Activity
MDA-MB-231 [1] = assay: Cytotoxicity against human MDA-MB-231 cells assessed as cell growth at 0.1 uM after 48 hrs by SRB assay relative to control; conditions: MDA-MB-231, 48 h, read-out: Activity
MCF7 = assay: Cytotoxicity against human MCF7 cells assessed as cell growth at 1 uM after 48 hrs by SRB assay relative to control; conditions: MCF7, 48 h, read-out: Activity
SN12C = assay: Cytotoxicity against human SN12C cells assessed as cell growth at 1 uM after 48 hrs by SRB assay relative to control; conditions: read-out: Activity
T47D = assay: Cytotoxicity against human T47D cells assessed as cell growth at 100 uM after 48 hrs by SRB assay relative to control; conditions: read-out: Activity
HOP-62 [2] = assay: Cytotoxicity against human HOP62 cells assessed as cell growth at 0.1 uM after 48 hrs by SRB assay relative to control; conditions: HOP-62, 48 h, read-out: Activity
MOLT-4 [3] = assay: Cytotoxicity against human MOLT4 cells assessed as cell growth at 0.1 uM after 48 hrs by SRB assay relative to control; conditions: MOLT-4, 48 h, read-out: Activity
OVCAR-5 [4] = assay: Cytotoxicity against human OVCAR5 cells after 48 hrs by SRB assay; conditions: OVCAR-5, 48 h
COLO 205 [5] = assay: Cytotoxicity against human COLO205 cells assessed as cell growth at 0.01 uM after 48 hrs by SRB assay relative to control; conditions: COLO 205, 48 h, read-out: Activity
M14 = assay: Cytotoxicity against human M14 cells assessed as cell growth at 0.01 uM after 48 hrs by SRB assay relative to control; conditions: M14, 48 h, read-out: Activity
HCT-116 = assay: Cytotoxicity against human HCT116 cells assessed as cell growth at 0.1 uM after 48 hrs by SRB assay relative to control; conditions: HCT-116, 48 h, read-out: Activity
ACHN [6] = assay: Cytotoxicity against human ACHN cells assessed as cell growth at 100 uM after 48 hrs by SRB assay relative to control; conditions: read-out: Activity
ACHN [7] = assay: Cytotoxicity against human ACHN cells assessed as cell growth at 0.01 uM after 48 hrs by SRB assay relative to control; conditions: read-out: Activity
NCI-H226 [8] = assay: Cytotoxicity against human NCI-H226 cells assessed as cell growth at 100 uM after 48 hrs by SRB assay relative to control; conditions: NCI-H226, 48 h, read-out: Activity
MDA-MB-231 [9] = assay: Cytotoxicity against human MDA-MB-231 cells after 48 hrs by SRB assay; conditions: MDA-MB-231, 48 h
Hs-578T = assay: Cytotoxicity against human Hs 578T cells assessed as cell growth at 0.01 uM after 48 hrs by SRB assay relative to control; conditions: read-out: Activity
SF-539 = assay: Cytotoxicity against human SF539 cells assessed as cell growth at 100 uM after 48 hrs by SRB assay relative to control; conditions: SF-539, 48 h, read-out: Activity
CAKI-1 = assay: Cytotoxicity against human Caki1 cells assessed as cell growth at 0.01 uM after 48 hrs by SRB assay relative to control; conditions: CAKI-1, 48 h, read-out: Activity
MDA-MB-468 [10] = assay: Cytotoxicity against human MDA-MB-468 cells after 48 hrs by SRB assay; conditions: MDA-MB-468, 48 h
NCI-H460 = assay: Cytotoxicity against human NCI-H460 cells after 48 hrs by SRB assay; conditions: NCI-H460, 48 h
NCI-H226 [11] = assay: Cytotoxicity against human NCI-H226 cells after 48 hrs by SRB assay; conditions: NCI-H226, 48 h
IGROV-1 = assay: Cytotoxicity against human IGROV1 cells assessed as cell growth at 0.1 uM after 48 hrs by SRB assay relative to control; conditions: IGROV-1, 48 h, read-out: Activity
OVCAR-5 [12] = assay: Cytotoxicity against human OVCAR5 cells assessed as cell growth at 100 uM after 48 hrs by SRB assay relative to control; conditions: OVCAR-5, 48 h, read-out: Activity
MDA-MB-468 [13] = assay: Cytotoxicity against human MDA-MB-468 cells assessed as cell growth at 100 uM after 48 hrs by SRB assay relative to control; conditions: MDA-MB-468, 48 h, read-out: Activity
COLO 205 [14] = assay: Cytotoxicity against human COLO205 cells assessed as cell growth at 0.1 uM after 48 hrs by SRB assay relative to control; conditions: COLO 205, 48 h, read-out: Activity
SK-MEL-5 = assay: Cytotoxicity against human SK-MEL-5 cells assessed as cell growth at 1 uM after 48 hrs by SRB assay relative to control; conditions: SK-MEL-5, 48 h, read-out: Activity
DU-145 = assay: Cytotoxicity against human DU145 cells assessed as cell growth at 100 uM after 48 hrs by SRB assay relative to control; conditions: DU-145, 48 h, read-out: Activity
ACHN [15] = assay: Cytotoxicity against human ACHN cells assessed as cell growth at 0.1 uM after 48 hrs by SRB assay relative to control; conditions: read-out: Activity
CCRF-CEM = assay: Cytotoxicity against human CCRF-CEM cells assessed as cell growth at 1 uM after 48 hrs by SRB assay relative to control; conditions: read-out: Activity
MOLT-4 [16] = assay: Cytotoxicity against human MOLT4 cells assessed as cell growth at 0.01 uM after 48 hrs by SRB assay relative to control; conditions: MOLT-4, 48 h, read-out: Activity
HOP-62 [17] = assay: Cytotoxicity against human HOP62 cells assessed as cell growth at 100 uM after 48 hrs by SRB assay relative to control; conditions: HOP-62, 48 h, read-out: Activity
SNB-19 = assay: Cytotoxicity against human SNB19 cells after 48 hrs by SRB assay; conditions: SNB-19, 48 h
KM12 = assay: Cytotoxicity against human KM12 cells assessed as cell growth at 100 uM after 48 hrs by SRB assay relative to control; conditions: KM12, 48 h, read-out: Activity
OVCAR-5 [18] = assay: Cytotoxicity against human OVCAR5 cells assessed as cell growth at 0.01 uM after 48 hrs by SRB assay relative to control; conditions: OVCAR-5, 48 h, read-out: Activity

## N#CCCCCCn1cc(C2=C(c3cn(CCCCCC#N)c4ccccc34)C(=O)N(O)C2=O)c2ccccc21
LOX IMVI
  growth at 1 µM: 71%
HOP-92
  growth at 0.1 µM: 97%
UO-31
  growth at 1 µM: 59%
PC-3
  growth at 1 µM: 80%
MDA-MB-231 [1]
  growth at 0.1 µM: 91%
MCF7
  growth at 1 µM: 95%
SN12C
  growth at 1 µM: 93%
T47D
  growth at 100 µM: -7%
HOP-62 [2]
  growth at 0.1 µM: 85%
MOLT-4 [3]
  growth at 0.1 µM: 81%
OVCAR-5 [4]
  GI50: 38.4 µM
  LC50: > 100 µM
  TGI: > 100 µM
COLO 205 [5]
  growth at 0.01 µM: 99%
M14
  growth at 0.01 µM: 97%
HCT-116
  growth at 0.1 µM: 97%
ACHN [6]
  growth at 100 µM: 4%
ACHN [7]
  growth at 0.01 µM: 99%
NCI-H226 [8]
  growth at 100 µM: -8%
MDA-MB-231 [9]
  GI50: 4.26 µM
  LC50 (50% lethal concentration): > 100 µM
  TGI: 64.7 µM
Hs-578T
  growth at 0.01 µM: 93%
SF-539
  growth at 100 µM: -36%
CAKI-1
  growth at 0.01 µM: 98%
MDA-MB-468 [10]
  GI50: 3.47 µM
  LC50: > 100 µM
  TGI: 13.9 µM
NCI-H460
  GI50: 5.05 µM
  LC50: > 100 µM
  TGI: 33 µM
NCI-H226 [11]
  GI50: 7.26 µM
  LC50: > 100 µM
  TGI: 70.8 µM
IGROV-1
  growth at 0.1 µM: 101%
OVCAR-5 [12]
  growth at 100 µM: 18%
MDA-MB-468 [13]
  growth at 100 µM: -15%
COLO 205 [14]
  growth at 0.1 µM: 93%
SK-MEL-5
  growth at 1 µM: 92%
DU-145
  growth at 100 µM: 12%
ACHN [15]
  growth at 0.1 µM: 91%
CCRF-CEM
  growth at 1 µM: 83%
MOLT-4 [16]
  growth at 0.01 µM: 87%
HOP-62 [17]
  growth at 100 µM: 4%
SNB-19
  GI50: 4.36 µM
  LC50: > 100 µM
  TGI: > 100 µM
KM12
  growth at 100 µM: -23%
OVCAR-5 [18]
  growth at 0.01 µM: 99%

## Cn1cc(C2=C(c3cn(C)c4ncccc34)C(=O)NC2=O)c2ccccc21
LOX IMVI
  growth at 1 µM: 74%
HOP-92
  growth at 0.1 µM: 83%
UO-31
  growth at 1 µM: 75%
PC-3
  growth at 1 µM: 86%
MDA-MB-231 [1]
  growth at 0.1 µM: 104%
MCF7
  growth at 1 µM: 73%
SN12C
  growth at 1 µM: 76%
T47D
  growth at 100 µM: -11%
HOP-62 [2]
  growth at 0.1 µM: 103%
MOLT-4 [3]
  growth at 0.1 µM: 119%
OVCAR-5 [4]
  GI50: 3.88 µM
  TGI: 29.1 µM
COLO 205 [5]
  growth at 0.01 µM: 105%
M14
  growth at 0.01 µM: 105%
HCT-116
  growth at 0.1 µM: 107%
ACHN [6]
  growth at 100 µM: -11%
ACHN [7]
  growth at 0.01 µM: 100%
NCI-H226 [8]
  growth at 100 µM: -16%
MDA-MB-231 [9]
  GI50: 4.67 µM
  TGI: 38.8 µM
Hs-578T
  growth at 0.01 µM: 91%
SF-539
  growth at 100 µM: -64%
CAKI-1
  growth at 0.01 µM: 97%
MDA-MB-468 [10]
  GI50: 2.22 µM
  TGI: 9.46 µM
NCI-H460
  GI50: 3.8 µM
  TGI: 22 µM
NCI-H226 [11]
  GI50: 2.24 µM
  TGI: 6.84 µM
IGROV-1
  growth at 0.1 µM: 97%
OVCAR-5 [12]
  growth at 100 µM: -15%
MDA-MB-468 [13]
  growth at 100 µM: -56%
COLO 205 [14]
  growth at 0.1 µM: 109%
SK-MEL-5
  growth at 1 µM: 89%
DU-145
  growth at 100 µM: -28%
ACHN [15]
  growth at 0.1 µM: 99%
CCRF-CEM
  growth at 1 µM: 85%
MOLT-4 [16]
  growth at 0.01 µM: 103%
HOP-62 [17]
  growth at 100 µM: -17%
SNB-19
  GI50: 6.31 µM
  TGI: 61.1 µM
KM12
  growth at 100 µM: -86%
OVCAR-5 [18]
  growth at 0.01 µM: 98%
